Test results published in ChEMBL document CHEMBL1135054, “Biphenylsulfonamide endothelin receptor antagonists. Part 3: structure-activity relationship of 4'-heterocyclic biphenylsulfonamides” (Bioorg Med Chem Lett, 2002).
pKi: −log10 of the molar value.

Columns and labels:
[1] = molecular target: T1, Endothelin receptor type B (Homo sapiens, UniProt P24530); test: Binding affinity to CHO cells stably expressing human Endothelin B receptor.; assay type: cell-based
T1 sequence (P24530 whole entry): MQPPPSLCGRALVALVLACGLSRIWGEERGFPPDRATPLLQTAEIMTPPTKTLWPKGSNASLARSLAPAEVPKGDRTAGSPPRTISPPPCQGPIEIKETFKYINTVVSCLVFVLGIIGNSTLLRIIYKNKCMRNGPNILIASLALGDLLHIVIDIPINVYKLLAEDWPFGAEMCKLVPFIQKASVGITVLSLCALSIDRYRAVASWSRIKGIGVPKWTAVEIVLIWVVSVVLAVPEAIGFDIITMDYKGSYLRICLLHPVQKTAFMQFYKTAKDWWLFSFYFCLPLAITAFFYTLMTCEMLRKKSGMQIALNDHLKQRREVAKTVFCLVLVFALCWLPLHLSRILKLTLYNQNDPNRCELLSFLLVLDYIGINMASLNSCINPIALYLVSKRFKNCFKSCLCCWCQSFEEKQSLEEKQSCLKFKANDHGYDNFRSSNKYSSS

Endothelin-1 receptor = molecular target: T2, Endothelin-1 receptor (Homo sapiens, UniProt P25101); test: biochemical
T2 sequence (P25101 whole entry): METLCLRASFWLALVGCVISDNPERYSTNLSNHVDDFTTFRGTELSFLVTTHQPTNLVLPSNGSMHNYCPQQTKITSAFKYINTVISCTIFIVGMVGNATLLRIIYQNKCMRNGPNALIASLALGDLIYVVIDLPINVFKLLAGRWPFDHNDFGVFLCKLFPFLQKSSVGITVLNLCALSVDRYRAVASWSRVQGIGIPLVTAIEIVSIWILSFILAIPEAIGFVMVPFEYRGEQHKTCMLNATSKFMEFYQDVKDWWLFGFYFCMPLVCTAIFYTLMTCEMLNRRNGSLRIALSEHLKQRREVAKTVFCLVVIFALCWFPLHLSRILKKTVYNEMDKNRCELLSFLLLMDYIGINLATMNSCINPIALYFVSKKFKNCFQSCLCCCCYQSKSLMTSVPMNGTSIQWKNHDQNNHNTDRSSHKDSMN
Description: Binding affinity to CHO cells stably expressing human Endothelin A receptor.

Compound | pKi [1] | pKi (Endothelin-1 receptor)
Cc1noc(NS(=O)(=O)c2ccccc2-c2ccc(-c3cncnc3)cc2)c1C | 3.77 | 6.52
Cc1noc(NS(=O)(=O)c2ccccc2-c2ccc(-c3nnn[nH]3)cc2)c1C | < 3.70 | 5.42
COc1cc(OC)nc(-c2ccc(-c3ccccc3S(=O)(=O)Nc3onc(C)c3C)cc2)n1 | 4.32 | 6.66
Cc1noc(NS(=O)(=O)c2ccccc2-c2ccc(-c3ncc[nH]3)cc2)c1C | 3.82 | 7.36
Cc1noc(NS(=O)(=O)c2ccccc2-c2ccc(-c3ccncn3)cc2)c1C | 3.89 | 7.60
Cc1noc(NS(=O)(=O)c2ccccc2-c2ccc(-c3nccs3)cc2)c1C | 4.28 | 8.25
Cc1noc(NS(=O)(=O)c2ccccc2-c2ccc(-c3nnco3)cc2)c1C | 4.12 | 8.40
Cc1noc(NS(=O)(=O)c2ccccc2-c2ccc(-c3nccn3C)cc2)c1C | 3.92 | 7.72

Stronger by pKi [1], values ahead:

pKi [1] | pKi (Endothelin-1 receptor) | Compound
5.20 | 8.64 | Cc1noc(NS(=O)(=O)c2ccccc2-c2ccc(-c3ccccn3)cc2)c1C
4.51 | 7.43 | Cc1[n-][o+]c(NS(=O)(=O)c2ccccc2-c2ccc(-c3cccc[n+]3[O-])cc2)c1C
4.41 | 6.57 | Cc1noc(NS(=O)(=O)c2ccccc2-c2ccc(-c3ccno3)cc2)c1C
4.66 | 8.21 | Cc1noc(NS(=O)(=O)c2ccccc2-c2ccc(-c3cnccn3)cc2)c1C
4.70 | 7.42 | Cc1noc(NS(=O)(=O)c2ccccc2-c2ccc(-c3ccccc3)cc2)c1C
5.03 | 8.17 | Cc1noc(NS(=O)(=O)c2ccccc2-c2ccc(-n3cccn3)cc2)c1C
4.70 | 8.48 | Cc1noc(NS(=O)(=O)c2ccccc2-c2ccc(-c3cccnc3)cc2)c1C
4.80 | 9.05 | Cc1noc(NS(=O)(=O)c2ccccc2-c2ccc(-c3ncccn3)cc2)c1C
